Patent US9279010B2, “Treatment of inflammatory bowel diseases with mammal beta defensins” (Defensin Therapeutics ApS, priority 2008, dated 2016)
Marks after values point to notes of the source that are not given here.

Assays:
[1] = tested on: Dextran Sodium Sulphate (DSS)-induced colitis; assay: 10-Day DSS-induced colitis model in the mouse (Example 2): Disease Activity Index and colon histology score; format: in vivo, mouse (male C57BL/6); set-up: key to DAI score: DAI score from stool, bleeding, weight loss; daily maximum 12; details: for DAI score: 1 mg/kg p.o. daily
From the text: The aim of the following study was to determine the anti-inflammatory activity of human beta defensin 2 in an acute (10-days) model of inflammatory bowel disease (colitis) induced by oral dextran sodium sulphate (DSS) administration in the mouse.
Animals were divided into 5 experimental groups.
Colitis was induced in mice by supplementing their drinking water with DSS 2% for 7 days.
On Day 1 all mice were weighed and marked according to their experimental groups. The drinking bottle of each cage was filled with the DSS solution, making sure all bottle lids were mounted properly and that none were congested.
On Day 3 any remaining solution in the bottles was emptied and refilled with fresh DSS solution. This procedure was repeated again on Day 5.
On Day 8 any remaining solution was discarded and replaced with autoclaved water.
Animals were sacrificed 2 days later on Day 10.
Daily clinical assessment of DSS-treated animals was carried out, with the calculation of a validated clinical Disease Activity Index (DAI) ranging from 0 to 4 according to the following parameters: stool consistency, presence or absence of rectal bleeding and weight loss:
Bodyweight loss was calculated as the percent difference between the original bodyweight (Day 1) and the actual bodyweight on each experimental day (2-10).
The appearance of diarrhoea is defined as mucus/faecal material adherent to anal fur. Rectal bleeding is defined as diarrhoea containing visible blood/mucus or gross rectal bleeding. The maximum score of the DAI each day is 12.
Their colons were removed and their length and weight measured after exclusion of the caecum.
Two sections (proximal and distal) of colon were taken from each animal and preserved in neutral buffered formalin for subsequent histological analysis (haematoxylin and eosin staining) according to the following scoring system:
Two sections (proximal and distal) of colon were taken from each animal, processed for histological analysis (haematoxylin and eosin staining) and scored by a blind observer according to the histological scoring system described above.
(§1) The statistical significance of the results was evaluated using the statistics program Graphpad Instat 3. The difference between groups for disease activity index and histological score was evaluated by Kruskal-Wallis test for unpaired data plus post-test Dunn to allow for multiple comparisons. A value of p<0.05 was taken as significant.

TNF-α = assay: Determination of TNF-alpha concentration in colonic tissue samples by ELISA (Example 2); format: in vivo, mouse (male C57BL/6); details: 1 mg/kg p.o. daily for 10 days
Method: (§2) An additional sample of colon was obtained from each animal and homogenised in PBS (100 mg tissue/ml PBS) containing 1% bovine serum albumin (BSA) and a protease inhibitor cocktail (1 ml/20 g tissue). The homogenate was then be centrifuged at 1400 rpm for 10 min and the supernatant stored at −20° C. for subsequent determination of TNF-α concentration by specific enzyme immunoassay (ELISA).
[…]

[2] = tested on: Dextran Sodium Sulphate (DSS)-induced colitis; assay: 10-Day DSS-induced colitis model in the mouse (Example 3): Disease Activity Index and colon histology score; format: in vivo
Method: Example 3 was carried out essentially as described in Example 2. The differences are indicated below.
Animals were divided into 9 experimental groups. […]
Methylprednisolone was given orally at a dose of 1 mg/kg (group H) and 10 mg/kg (group J) in a dosing volume of 5 ml/kg body weight, once daily for 10 consecutive days.
Two sections (proximal and distal) of colon were taken from each animal, processed for histological analysis (haematoxylin and eosin staining), and scored by a blind observer according to the scoring system described above.
as §1, with “data+post-test of” for “data plus post-test”, “Dunn” for “Dunn to allow”, “significant. In the tables above, significant differences versus the corresponding control (vehicle) group are denoted as: *p<0.05, **p<0.01, ***p<0.001.” for “significant.”

## C[C@H]1C[C@@H]2[C@H]([C@@H](O)C[C@@]3(C)[C@H]2CC[C@]3(O)C(=O)COC(=O)CCC(=O)O)[C@@]2(C)C=CC(=O)C=C12 [Methylprednisolone 21-hemisuccinate]
[1]; 1 mg/kg p.o. daily for 10 days
  Histology Score Distal Colon: 3.70
  Histology Score Proximal Colon: 2.80*
[1]; Day 1
  DAI score: 0.00
[1]; Day 2
  DAI score: 0.10
[1]; Day 3
  DAI score: 0.00
[1]; Day 4
  DAI score: 2.60
[1]; Day 5
  DAI score: 2.50
[1]; Day 6
  DAI score: 2.60
[1]; Day 7
  DAI score: 3.10
[1]; Day 8
  DAI score: 2.50*
[1]; Day 9
  DAI score: 3.80*
[1]; Day 10
  DAI score: 4.90**
TNF-α
  Colon TNF-α concentration: 1833 pg/g tissue
[2]; 1 mg/kg p.o. once daily
  Histology Score Distal Colon: 3.00***
  Histology Score Proximal Colon: 1.40
[2]; 1 mg/kg p.o. once daily, Day 1
  DAI score: 0.00
[2]; 1 mg/kg p.o. once daily, Day 2
  DAI score: 0.50
[2]; 1 mg/kg p.o. once daily, Day 3
  DAI score: 0.50
[2]; 1 mg/kg p.o. once daily, Day 4
  DAI score: 0.40
[2]; 1 mg/kg p.o. once daily, Day 5
  DAI score: 1.10
[2]; 1 mg/kg p.o. once daily, Day 6
  DAI score: 3.80
[2]; 1 mg/kg p.o. once daily, Day 7
  DAI score: 5.90
[2]; 1 mg/kg p.o. once daily, Day 8
  DAI score: 6.40
[2]; 1 mg/kg p.o. once daily, Day 9
  DAI score: 5.60*
[2]; 1 mg/kg p.o. once daily, Day 10
  DAI score: 5.60*
[2]; 10 mg/kg p.o. once daily
  Histology Score Distal Colon: 2.70***
  Histology Score Proximal Colon: 1.40
[2]; 10 mg/kg p.o. once daily, Day 1
  DAI score: 0.00
[2]; 10 mg/kg p.o. once daily, Day 2
  DAI score: 0.30
[2]; 10 mg/kg p.o. once daily, Day 3
  DAI score: 0.70
[2]; 10 mg/kg p.o. once daily, Day 4
  DAI score: 0.80
[2]; 10 mg/kg p.o. once daily, Day 5
  DAI score: 1.30
[2]; 10 mg/kg p.o. once daily, Day 6
  DAI score: 2.00
[2]; 10 mg/kg p.o. once daily, Day 7
  DAI score: 3.20**
[2]; 10 mg/kg p.o. once daily, Day 8
  DAI score: 4.80**
[2]; 10 mg/kg p.o. once daily, Day 9
  DAI score: 5.20*
[2]; 10 mg/kg p.o. once daily, Day 10
  DAI score: 4.00***
